Read-outs that look alike come from different tables or passages of the source.
Columns and labels:
[1] = system: ex vivo swine trachea preparations; experiment: Mucociliary clearance assay, tantalum disk movement on excised swine trachea
isolated swine trachea = experiment: ASL layer height by synchrotron phase contrast imaging, isolated wild-type swine trachea (ex vivo)
airway submucosal glands = experiment: Fluid secretion assay of airway submucosal glands (droplets under oil); conditions: WT swine, FIG. 12
Experimental: To confirm that both exemplary neuronal agonists capsaicin and menthol stimulate active fluid secretion by airway submucosal glands in WT swine, the effect of exemplary neuronal agonists menthol and capsaicin was on fluid secretion rate was measured using the secretion assay as described elsewhere^21. The mucosal layer from trachea or primary bronchus, with underlying glands, was dissected from the cartilage. A piece of tissue of about 1 cm^2 was pinned mucosal side up and mounted in a 35-mm-diameter plastic Petri dish lined with Sylgard (Dow Corning Corp). The serosal side was immersed in a bathing solution ( 1 ml volume), and the mucosa was in air. Before experimentation, the mucosal surface was gently cleaned and blotted dry with cotton swabs and further dried with a stream of air, after water-saturated mineral oil was placed on the surface.

live wild-type swine = experiment: ASL layer height by synchrotron phase contrast imaging, live wild-type swine; conditions: added alone to HTS, WT swine in vivo, lesser extent than with capsaicin, FIG. 11
[2] = ex vivo wild-type trachea, HTS 7% w/v NaCl, 18 min

In the case of `C=C(C)[C@@H]1CC[C@@H](C)C[C@H]1O` [(−)-isopulegol, (1R,2S,5R)-2-Isopropenyl-5-methylcyclohexanol], the “duration of HTS-triggered mucociliary clearance” value ([1]; wild-type swine ex vivo, added to HTS, measured at 0, 90 and 150 min, FIG. 15) is reported as “extended the duration of HTS-triggered mucociliary clearance”.

`O=C(O)c1ccc(/C=C2\SC(=S)N(c3cccc(C(F)(F)F)c3)C2=O)cc1` [CFTRinh172] was tested, and the “effect on HTS-triggered ASL secretion, time course” value (isolated swine trachea; wild-type swine trachea preparations ex vivo, FIG. 8) was “decreases the effect of HTS on ASL secretion”.

For `Ic1ccccc1CN[C@@H]1C2CCN(CC2)[C@@H]1C(c1ccccc1)c1ccccc1` [L-703606], the “effect on HTS-triggered ASL layer height increase” value (isolated swine trachea; [2]) was “significantly reduced”, the “effect on ASL layer height in ITS-treated preparations” value (isolated swine trachea; ex vivo wild-type trachea, ITS 0.9% w/v NaCl, 18 min) was “had no effect” and the “effect on response to HTS treatment in preparations incubated with CFTRinh172” value (isolated swine trachea; ex vivo, CFTRinh172 100 μM (model of airways without CFTR function), 18 min) was “unaffected”.

With `N=C(N)NC(=O)c1nc(Cl)c(N)nc1N` [amiloride] the “effect on HTS-triggered ASL layer height increase” value (isolated swine trachea; [2]) was “did not affect HTS treatment”.

In the case of `CN1[C@@H]2CC[C@H]1C[C@@H](OC(=O)C(CO)c1ccccc1)C2` (stereo partly shown) [atropine], the “effect on ASL layer height in ITS-treated preparations” value (isolated swine trachea) is reported as “had no effect”, the “effect on HTS-triggered ASL layer height increase” value (isolated swine trachea) is reported as “reduced HTS-triggered ASL secretion” and the “effect on ITS-treated preparations incubated with CFTRinh172” value (isolated swine trachea) is reported as “had no effect”. The “effect on response to HTS treatment in preparations incubated with CFTRinh172” value (isolated swine trachea) was “reduced the response to HTS treatment”.

`COc1cc(CNC(=O)CCCC/C=C/C(C)C)ccc1O` [capsaicin, (6E)-N-[(4-Hydroxy-3-methoxyphenyl)methyl]-8-methylnon-6-enamide] was tested, and the “ASL secretion by the submucosal glands” value (airway submucosal glands) was “triggers significant ASL secretion”, the “HTS-triggered increase in mucociliary clearance” value ([1]; WT swine airways, added to HTS, FIG. 13) was “augmented” and the “ITS-triggered increase in mucociliary clearance” value ([1]; WT swine airways, added to ITS, FIG. 13) was “augmented”.

For `CC1CCC(C(C)C)C(O)C1` (stereo not shown) [menthol, 5-Methyl-2-(propan-2-yl)cyclohexan-1-ol], the duration of treatment (live wild-type swine) was “increase the intensity and duration of treatment”, the intensity of treatment (live wild-type swine) was “increase the intensity and duration of treatment” and the “ASL secretion by the submucosal glands” value (airway submucosal glands) was “triggers significant ASL secretion”.

— US20210228511A1, “NEURONAL AGONISTS AND ISOTONIC OR HYPERTONIC SALINE FOR TREATING RESPIRATORY DISEASES” (University of Saskatchewan, priority 2020, published 2021)
